Measured values taken from patent US20050054025A1 (priority 2003, published 2005).
Converted amounts (≈) assume the structure as drawn. Marks after values point to notes of the source that are not given here.

How the values were obtained:
acetylcholinesterase [1] = target: acetylcholinesterase (Homo sapiens, UniProt P22303); test: biochemical; assay type: biochemical; conditions: for IC20: read-out: Porex Dot Test IC20
acetylcholinesterase [2] = conditions: cited from earlier work

Sequence of acetylcholinesterase (Homo sapiens, UniProt P22303) (P22303 32-614, species assumed): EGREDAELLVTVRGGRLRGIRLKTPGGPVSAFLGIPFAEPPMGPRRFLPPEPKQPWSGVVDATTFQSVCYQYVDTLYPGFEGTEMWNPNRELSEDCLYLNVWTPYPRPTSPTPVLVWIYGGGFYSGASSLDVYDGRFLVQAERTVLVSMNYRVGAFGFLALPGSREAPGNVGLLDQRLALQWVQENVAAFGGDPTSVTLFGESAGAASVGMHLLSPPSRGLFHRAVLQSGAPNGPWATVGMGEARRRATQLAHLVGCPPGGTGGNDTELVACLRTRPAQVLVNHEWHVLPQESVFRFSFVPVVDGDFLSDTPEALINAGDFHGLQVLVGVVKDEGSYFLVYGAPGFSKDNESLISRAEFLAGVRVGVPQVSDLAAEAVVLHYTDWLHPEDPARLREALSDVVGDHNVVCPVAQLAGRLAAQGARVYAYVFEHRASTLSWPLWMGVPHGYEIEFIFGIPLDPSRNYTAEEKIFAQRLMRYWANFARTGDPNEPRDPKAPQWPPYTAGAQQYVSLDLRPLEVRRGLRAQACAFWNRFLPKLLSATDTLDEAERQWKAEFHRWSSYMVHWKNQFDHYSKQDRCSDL

SMILES	IC20 (acetylcholinesterase [1])	EnviroLogix IC20 (acetylcholinesterase [2])	other results
CNC(=O)O/N=C/C(C)(C)SC [Aldicarb]	33 ng/mL (≈ 173 nM)		
CNC(=O)Oc1ccccc1OC(C)C [Baygon (propoxur), propoxur]	9 ng/mL (≈ 43 nM)	50 μg/L	
CNC(=O)Oc1cccc2ccccc12 [Carbaryl]	9 ng/mL (≈ 44.7 nM)	110 μg/L	
CNC(=O)Oc1cccc2c1OC(C)(C)C2 [Carbofuran]	0.4 ng/mL (≈ 1.81 nM)	40 μg/L	
CCOP(=S)(OCC)Oc1nc(Cl)c(Cl)cc1Cl [Chloropyrifos]		5.2 μg/L	IC50 (acetylcholinesterase [1]): 0.285 nM
CCOP(=S)(OCC)Oc1cc(C)nc(C(C)C)n1 [Diazinon]	0.14 ng/mL (≈ 0.46 nM)		EnviroLogix IC50 (cells marked *) (acetylcholinesterase [2]): 3.0* μg/L
CCOP(=S)(OCC)SCCSCC [Disulfoton]	0.5 ng/mL (≈ 1.82 nM)		
CCOC(=O)CC(SP(=S)(OC)OC)C(=O)OCC (stereo not drawn) [Malithion]		60 μg/L	Porex Dot Test IC20 (acetylcholinesterase [1]): 0.11 ng/mL
CNC(=O)ON=C(C)SC [Methomyl]	0.011 ng/mL (≈ 0.0678 nM)		
CNC(=O)O/N=C(\SC)C(=O)N(C)C [Oxymyl]		100 μg/L	Porex Dot Test IC20 (acetylcholinesterase [1]): 16.7 ng/mL
CCOP(=O)(OCC)Oc1ccc([N+](=O)[O-])cc1 [Paraoxon]			detectable amount using instrument detection (acetylcholinesterase [1]): about 0.5 ng/mL; detectable level, determined visually (acetylcholinesterase [1]): 10 ng/mL
CCOP(=S)(OCC)SCSC(C)(C)C [Terbufos]	143 ng/mL (≈ 496 nM)		EnviroLogix IC50 (cells marked *) (acetylcholinesterase [2]): 12* μg/L
